In ChEMBL document CHEMBL3352258 (J Med Chem, 2014):
Converted amounts (≈) assume the structure as drawn.

Assays:
[1] = biological target: T1, Glucose-dependent insulinotropic receptor (Homo sapiens, UniProt Q8TDV5); experiment: Agonist activity at human GPR119
T1 sequence (Q8TDV5 whole entry): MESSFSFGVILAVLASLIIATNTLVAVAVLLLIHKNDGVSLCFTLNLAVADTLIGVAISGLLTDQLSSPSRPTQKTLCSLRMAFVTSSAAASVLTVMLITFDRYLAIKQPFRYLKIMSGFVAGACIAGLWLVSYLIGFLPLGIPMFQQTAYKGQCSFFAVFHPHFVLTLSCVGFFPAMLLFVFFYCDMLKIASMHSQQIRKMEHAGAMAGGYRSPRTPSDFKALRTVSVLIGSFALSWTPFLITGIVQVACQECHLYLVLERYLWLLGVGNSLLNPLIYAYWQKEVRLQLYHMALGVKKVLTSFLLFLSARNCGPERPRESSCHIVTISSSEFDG

[2] = biological target: T2, Glucose-dependent insulinotropic receptor (Homo sapiens) (UniProt Q8TDV5); experiment: Intrinsic activity at human GPR119 relative to control
T2 sequence (whole entry): T1 sequence (Q8TDV5 whole entry)

[3] = Half life in Sprague-Dawley rat at 5 mg/kg, po; assay type: ADME, organism-based; parameters: dose 5 mg/kg, route oral; settings: Sprague-Dawley, in vivo
[4] = Half life in mouse; assay type: ADME, organism-based; settings: in vivo
[5] = Half life in human liver microsomes; assay type: ADME
[6] = Solubility of the compound at pH 6.5; assay type: physicochemical; settings: buffer
[7] = Solubility of the compound in 50% PEG400/ 50% PBS solution; assay type: physicochemical

Row | Structure (SMILES) | EC50 [1] | Intrinsic activity [2] | further results
1 | CCCc1cnc(N2CCC(Oc3ccn(-c4ccc([S+](C)[O-])cc4)c(=O)c3)CC2)nc1 (racemic) | 41 nM | 0.9 | 
2 | CC(C)OC(=O)N1[C@@H]2CC[C@@H]1CC(Oc1ccn(-c3ccc(S(C)(=O)=O)cc3)c(=O)c1)C2 (relative stereo; 13) [listing 1 of 2 here] |  | 1 | 
3 | CCCc1cnc(N2CCC(Oc3ccn(-c4ccc(S(C)(=O)=O)c(F)c4)c(=O)c3)CC2)nc1 | 9 nM | 0.8 | 
4 | CS(=O)(=O)c1ccc(-n2cc(Cl)c(OC3CCN(c4ncc(Cl)cn4)CC3)cc2=O)cc1 | 18 nM |  | half-life [3]: 9 min; half-life [4]: 11 min; half-life [5]: 59 min; solubility [6]: < 1 µg/mL; solubility [7]: 7 µg/mL (≈ 14.1 µM)
5 | CC(C)OC(=O)N1CC(Oc2ccn(-c3ccc(S(C)(=O)=O)cc3)c(=O)c2)C1 | > 10000 nM |  | 
6 | CCCc1cnc(N2CCC(Oc3cc(C)n(-c4ccc(S(C)(=O)=O)cc4)c(=O)c3)CC2)nc1 | > 10000 nM |  | 
7 | CCCc1cnc(N2CCC(Oc3ccn(-c4ccc(NC(=O)C(C)(C)C)cc4)c(=O)c3)CC2)nc1 | 37 nM | 0.8 | 
8 | CCc1cnc(N2CCC(Oc3ccn(-c4ccc(S(C)(=O)=O)cc4)c(=O)c3)CC2)nc1 | 57 nM | 0.8 | 
9 | CC(C)OC(=O)N1[C@@H]2CC[C@@H]1CC(Oc1ccn(-c3ccc(S(C)(=O)=O)cc3)c(=O)c1)C2 (relative stereo; 14) |  | 0.7 | 
10 | CS(=O)(=O)c1ccc(-n2ccc(OC3CCN(C(=O)Oc4ccccc4)CC3)cc2=O)cc1 | 130 nM | 0.9 | 
11 | CC(C)OC(=O)N1[C@@H]2CC[C@@H]1CC(Oc1ccn(-c3ccc(S(C)(=O)=O)cc3)c(=O)c1)C2 (relative stereo; 13) [listing 2 of 2 here] | 870 nM |  | 
12 | Cc1ccnc(N2CCC(Oc3ccn(-c4ccc(S(C)(=O)=O)cc4)c(=O)c3)CC2)n1 | 724 nM | 0.3 | 
13 | CS(=O)(=O)c1ccc(-n2cc(Cl)c(OC3CCN(c4ncc(Cl)cn4)CC3)cc2=O)cc1F | 13 nM |  | half-life [3]: 12 min; half-life [4]: 18 min; half-life [5]: 39 min; solubility [6]: 3 µg/mL (≈ 5.84 µM); solubility [7]: 199 µg/mL (≈ 388 µM)
14 | CS(=O)(=O)c1ccc(-n2cc(Cl)c(OC3CCN(c4ncc(C(F)(F)F)cn4)CC3)cc2=O)cc1 | 13 nM |  | half-life [3]: > 72 min; half-life [4]: 16 min; half-life [5]: > 120 min; solubility [6]: < 1 µg/mL; solubility [7]: 3 µg/mL (≈ 5.67 µM)
15 | CC(C)(C)OC(=O)N1CCC(Oc2ccn(-c3ccc(S(C)(=O)=O)cc3)c(=O)c2)CC1 | 183 nM | 0.8 | 
16 | CCCc1cnc(N2CCC(Oc3cc(=O)n(-c4ccc(S(C)(=O)=O)cc4)cc3-c3ccccc3)CC2)nc1 | > 10000 nM |  | 
17 | CCCc1cnc(N2CCC(Oc3ccn(-c4ccc(C#N)cc4)c(=O)c3)CC2)nc1 | 11 nM | 0.8 | 
18 | CCCc1cnc(N2CCC(Oc3cc(=O)n(-c4ccc(S(C)(=O)=O)cc4)cc3C)CC2)nc1 | 31 nM | 0.9 | 

The next lines start with results.

Row | EC50 [1] | Intrinsic activity [2] | Structure (SMILES) | further results
19 | > 10000 nM |  | CC(C)OC(=O)N1CCC(COc2ccn(-c3ccc(S(C)(=O)=O)cc3)c(=O)c2)C1 (stereo not given) | 
20 | 16 nM |  | CS(=O)(=O)c1ccc(-n2cc(Cl)c(OC3CCN(c4ncc(C(F)(F)F)cn4)CC3)cc2=O)cc1F | half-life [3]: > 48 min; half-life [4]: 27 min; half-life [5]: > 120 min; solubility [6]: < 1 µg/mL; solubility [7]: 31 µg/mL (≈ 56.7 µM)
21 | 1700 nM | 0.7 | CC(C)OC(=O)N1CCC(COc2ccn(-c3ccc(S(C)(=O)=O)cc3)c(=O)c2)CC1 | 
22 | 63 nM | 0.8 | CCCc1cnc(N2CCC(Oc3ccn(-c4ccc(-n5cncn5)cc4)c(=O)c3)CC2)nc1 | 
23 |  | 0.8 | CCCc1cnc(N2CCC(Oc3cc(=O)n(-c4ccc(S(C)(=O)=O)cc4)cc3Cl)CC2)nc1 | 
24 |  | 0.8 | CCCc1cnc(N2CCC(Oc3ccn(-c4ccc(-n5ccnc5)cc4)c(=O)c3)CC2)nc1 | 
25 | > 10000 nM |  | CCCc1cnc(N2CCC(Oc3ccn(-c4ccc(S(C)(=O)=O)cc4)c(=O)c3Cl)CC2)nc1 | 
26 | 12 nM |  | CS(=O)(=O)c1ccc(-n2cc(Cl)c(OC3CCN(c4ncc(C(F)(F)F)cn4)CC3)cc2=O)c(F)c1 | half-life [3]: > 72 min; half-life [4]: 30 min; half-life [5]: > 120 min; solubility [6]: 1 µg/mL (≈ 1.83 µM); solubility [7]: 122 µg/mL (≈ 223 µM)
27 | 1090 nM | 0.7 | CC(C)OC(=O)N1CCCC(Oc2ccn(-c3ccc(S(C)(=O)=O)cc3)c(=O)c2)CC1 (stereo not given) | 
28 | 32 nM | 0.8 | CCCc1cnc(N2CCC(Oc3ccn(-c4ccc(N5CCCC5=O)cc4)c(=O)c3)CC2)nc1 | 
29 | > 10000 nM |  | CC(C)OC(=O)N1CC(COc2ccn(-c3ccc(S(C)(=O)=O)cc3)c(=O)c2)C1 | 
30 | 12 nM | 0.8 | CCCc1cnc(N2CCC(Oc3cc(=O)n(-c4ccc(S(C)(=O)=O)cc4)cc3C#N)CC2)nc1 | 
31 | 133 nM | 0.8 | CC(C)OC(=O)N1CCC(Oc2ccn(-c3ccc(S(C)(=O)=O)cc3)c(=O)c2)CC1 | 
32 | 23 nM | 0.9 | CS(=O)(=O)c1ccc(-n2ccc(OC3CCN(c4ncc(C5CC5)cn4)CC3)cc2=O)cc1 | 
33 | 16 nM | 0.8 | CCCc1cnc(N2CCC(Oc3ccn(-c4ccc(S(C)(=O)=O)cc4)c(=O)c3)CC2)nc1 | 
34 | > 10000 nM |  | CC(C)OC(=O)N1CCC(Oc2ccn(-c3ccc(S(C)(=O)=O)cc3)c(=O)c2)C1 (stereo not given) | 
35 | 104 nM | 0.6 | CCc1ccc(N2CCC(Oc3ccn(-c4ccc(S(C)(=O)=O)cc4)c(=O)c3)CC2)nc1 | 
36 | 117 nM | 1 | COc1cnc(N2CCC(Oc3ccn(-c4ccc(S(C)(=O)=O)cc4)c(=O)c3)CC2)nc1 | 
